Experimental data taken from ChEMBL document CHEMBL1151457, “Colistin heteroresistance in acinetobacter and its association with previous colistin therapy” (Antimicrob Agents Chemother, 2008).
Activity calls are given as the source filed them. No cut-off for these calls is given here.

Tests used:
Format in all cases: functional, organism-based
Acinetobacter [1] = assay: Antibacterial activity against heteroresistant Acinetobacter baumannii-calcoaceticus complex isolated from total cumulative patients preexposed to 325 to 900 mg of drug after 20 to 24 hrs by broth microdilution method
Acinetobacter [2] = assay: Antibacterial activity against heteroresistant Acinetobacter baumannii-calcoaceticus complex isolated from total cumulative patients preexposed to 325 to 900 mg of drug at 2 ug/ml after 20 to 24 hrs by broth microdilution method
Acinetobacter [3] = assay: Antimicrobial activity against susceptible-Acinetobacter baumannii-calcoaceticus complex isolated from patients after 20 to 24 hrs by broth microdilution method
Acinetobacter [4] = assay: Antibacterial activity against heteroresistant Acinetobacter baumannii-calcoaceticus complex isolated from total cumulative patients preexposed to 325 to 900 mg of drug measured after two passages with 8 ug/ml of drug on sheep blood plates by broth microdilution method
Acinetobacter [5] = assay: Antibacterial activity against Acinetobacter baumannii-calcoaceticus complex assessed as colony forming unit at 8 ug/ml after 20 to 24 hrs by broth microdilution method
Acinetobacter [6] = assay: Antimicrobial activity against heteroresistant-Acinetobacter baumannii-calcoaceticus complex isolated from patients after 20 to 24 hrs by broth microdilution method
Acinetobacter [7] = assay: Antibacterial activity against heteroresistant Acinetobacter baumannii-calcoaceticus complex isolated from total cumulative patients preexposed to 325 to 900 mg of drug assessed as colony forming unit at 8 ug/ml after 20 to 24 hrs by broth microdilution method
Acinetobacter [8] = assay: Antibacterial activity against heteroresistant Acinetobacter baumannii-calcoaceticus complex isolated from total cumulative patients preexposed to 325 to 900 mg of drug at 4 ug/ml after 20 to 24 hrs by broth microdilution method

Compound	Activity (Acinetobacter [1])	Activity (Acinetobacter [2])	MIC (Acinetobacter [3]) [µg/mL]	MIC (Acinetobacter [4]) [µg/mL]	Activity (Acinetobacter [5]) [%]	MIC (Acinetobacter [6]) [µg/mL]	Activity (Acinetobacter [7]) [%]	Activity (Acinetobacter [8])
CC1(C)[C@H](C(=O)O)N2C(=O)C[C@H]2S1(=O)=O	Active							
COLISTIN		inactive	< 1	> 16	5.3e-05	> 8	0.000211	inactive
GENTAMICIN	Active							
